Patent publication US20190152992A1, “BENZODIOXANE DERIVATIVES AND THEIR PHARMACEUTICAL USE” (Orion Corporation, priority 2016, published 2019)
Like-named read-outs stand apart in the source and are kept apart here.

Experiments:
human alpha2A receptors = molecular target: T1, human alpha2A receptors (Homo sapiens, UniProt P08913); conditions: for IC50: read-out: Alpha 2A Adrenaline IC50, antagonism, cells stimulated with adrenaline, CHO cells stably transfected with human alpha2A, cotransfected with Gα16, intracellular calcium; for Kb: read-out: Alpha 2A Adrenaline Kb, Kb calculated from IC50 with the Cheng-Prusoff equation, adrenaline as agonist, CHO cells, human alpha2A
T1 sequence (P08913 1-465): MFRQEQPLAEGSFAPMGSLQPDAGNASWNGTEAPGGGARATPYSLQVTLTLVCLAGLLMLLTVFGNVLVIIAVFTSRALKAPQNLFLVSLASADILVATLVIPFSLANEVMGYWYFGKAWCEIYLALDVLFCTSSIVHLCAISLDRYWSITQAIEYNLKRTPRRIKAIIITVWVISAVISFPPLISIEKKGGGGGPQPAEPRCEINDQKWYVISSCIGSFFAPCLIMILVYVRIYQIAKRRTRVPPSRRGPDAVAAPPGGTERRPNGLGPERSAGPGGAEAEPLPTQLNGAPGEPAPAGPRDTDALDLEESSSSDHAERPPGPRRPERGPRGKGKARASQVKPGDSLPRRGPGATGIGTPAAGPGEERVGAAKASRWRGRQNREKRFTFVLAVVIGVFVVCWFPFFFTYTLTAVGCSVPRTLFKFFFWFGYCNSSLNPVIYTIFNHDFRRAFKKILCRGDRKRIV

human alpha2C receptors = molecular target: T2, human alpha2C receptors (Homo sapiens, UniProt P18825); assay: Determination of alpha2C antagonistic activity in vitro (FLIPR calcium assay); conditions: for Kb: Kb calculated from IC50 with the Cheng-Prusoff equation, adrenaline as agonist, CHO cells, human alpha2C
T2 sequence (P18825 1-462): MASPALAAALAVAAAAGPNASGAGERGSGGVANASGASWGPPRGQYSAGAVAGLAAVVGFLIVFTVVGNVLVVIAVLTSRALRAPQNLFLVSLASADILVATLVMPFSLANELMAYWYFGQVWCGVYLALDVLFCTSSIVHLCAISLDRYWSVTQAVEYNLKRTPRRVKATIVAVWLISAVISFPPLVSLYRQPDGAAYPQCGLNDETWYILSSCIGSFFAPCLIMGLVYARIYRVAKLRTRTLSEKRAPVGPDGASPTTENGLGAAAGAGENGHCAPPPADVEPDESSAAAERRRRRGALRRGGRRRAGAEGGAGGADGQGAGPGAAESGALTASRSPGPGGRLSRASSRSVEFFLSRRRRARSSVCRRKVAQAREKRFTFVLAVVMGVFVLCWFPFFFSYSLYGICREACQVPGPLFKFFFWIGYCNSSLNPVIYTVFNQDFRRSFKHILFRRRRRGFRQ

[1] = read-out: Alpha 2C Adrenaline IC50, antagonism, cells stimulated with adrenaline, CHO cells stably transfected with human alpha2C, cotransfected with Gα16, intracellular calcium
[2] = read-out: Alpha 2C Adrenaline Kb

Compound | IC50 (human alpha2A receptors) [nM] | Kb (human alpha2A receptors) [nM] | IC50 (human alpha2C receptors) [nM] | Kb (human alpha2C receptors; Alpha 2C Adrenaline Kb) [nM] | IC50 (human alpha2C receptors; [1]) [nM] | Kb (human alpha2C receptors; [2]) [nM]
CC1CCN([C@H]2CCCN(C[C@H]3COc4ccccc4O3)C2)C1=O (single isomer, unassigned; diastereomer 2) [example 99] | > 10000 | > 449 | 0.15 | 0.02 |  | 
O=C1NCCCN1[C@H]1CCCN(C[C@H]2COc3ccccc3O2)C1 [compound 53, 1-((S)-1-(((S)-2,3-Dihydrobenzo[b][1,4]dioxin-2-yl)methyl)piperidin-3-yl)tetrahydropyrimidin-2(1H)-one] | > 10000 | > 449 |  |  | 1.04 | 0.105
(R)-1-((S)-1-(((S)-2,3-Dihydrobenzo[b][1,4]dioxin-2-yl)methyl)piperidin-3-yl)-3-methyl-3-phenylpyrrolidine-2,5-dione and (S)-1-((S)-1-(((S)-2,3-dihydrobenzo[b][1,4]dioxin-2-yl)methyl)piperidin-3-yl)-3-methyl-3-phenylpyrrolidine-2,5-dione [example 36] | 1560 | 70 |  |  | 0.908 | 0.091
